ChEMBL document CHEMBL2417377, “Hit-to-lead optimization and kinase selectivity of imidazo[1,2-a]quinoxalin-4-amine derived JNK1 inhibitors” (Bioorg Med Chem Lett, 2013)

Legend:
[1] = molecular target: T1, Mitogen-activated protein kinase kinase kinase 3 (Homo sapiens) (UniProt Q99759); assay: Inhibition of MAP3K3 in human PC3 cell lysates at 10 uM using desthiobiotin-tagged ATP probe AX9989 followed by trypsinization by LC/MS analysis; details: PC-3
T1 sequence (whole entry): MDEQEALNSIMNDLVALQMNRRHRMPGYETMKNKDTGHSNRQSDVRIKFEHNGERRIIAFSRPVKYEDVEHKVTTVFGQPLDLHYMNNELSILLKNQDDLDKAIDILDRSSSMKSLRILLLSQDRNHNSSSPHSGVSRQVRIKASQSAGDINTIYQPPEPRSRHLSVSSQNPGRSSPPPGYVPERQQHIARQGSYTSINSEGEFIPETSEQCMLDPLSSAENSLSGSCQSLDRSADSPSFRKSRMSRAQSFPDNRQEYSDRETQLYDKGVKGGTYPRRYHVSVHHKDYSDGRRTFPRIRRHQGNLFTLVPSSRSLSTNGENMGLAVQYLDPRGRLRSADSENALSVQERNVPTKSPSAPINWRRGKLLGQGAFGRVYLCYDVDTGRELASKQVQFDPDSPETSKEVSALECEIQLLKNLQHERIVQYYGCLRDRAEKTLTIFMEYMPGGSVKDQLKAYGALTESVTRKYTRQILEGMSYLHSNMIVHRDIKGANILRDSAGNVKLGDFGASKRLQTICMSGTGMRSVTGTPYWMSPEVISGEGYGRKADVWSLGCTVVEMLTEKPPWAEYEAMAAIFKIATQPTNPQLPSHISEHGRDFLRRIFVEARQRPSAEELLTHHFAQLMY

[2] = molecular target: Mitogen-activated protein kinase kinase kinase 4 (Homo sapiens) (UniProt Q9Y6R4); assay: Inhibition of MAP3K4 in human PC3 cell lysates at 10 uM using desthiobiotin-tagged ATP probe AX9989 followed by trypsinization by LC/MS analysis; details: PC-3
Sequence of Mitogen-activated protein kinase kinase kinase 4 (Homo sapiens) (Q9Y6R4 whole entry): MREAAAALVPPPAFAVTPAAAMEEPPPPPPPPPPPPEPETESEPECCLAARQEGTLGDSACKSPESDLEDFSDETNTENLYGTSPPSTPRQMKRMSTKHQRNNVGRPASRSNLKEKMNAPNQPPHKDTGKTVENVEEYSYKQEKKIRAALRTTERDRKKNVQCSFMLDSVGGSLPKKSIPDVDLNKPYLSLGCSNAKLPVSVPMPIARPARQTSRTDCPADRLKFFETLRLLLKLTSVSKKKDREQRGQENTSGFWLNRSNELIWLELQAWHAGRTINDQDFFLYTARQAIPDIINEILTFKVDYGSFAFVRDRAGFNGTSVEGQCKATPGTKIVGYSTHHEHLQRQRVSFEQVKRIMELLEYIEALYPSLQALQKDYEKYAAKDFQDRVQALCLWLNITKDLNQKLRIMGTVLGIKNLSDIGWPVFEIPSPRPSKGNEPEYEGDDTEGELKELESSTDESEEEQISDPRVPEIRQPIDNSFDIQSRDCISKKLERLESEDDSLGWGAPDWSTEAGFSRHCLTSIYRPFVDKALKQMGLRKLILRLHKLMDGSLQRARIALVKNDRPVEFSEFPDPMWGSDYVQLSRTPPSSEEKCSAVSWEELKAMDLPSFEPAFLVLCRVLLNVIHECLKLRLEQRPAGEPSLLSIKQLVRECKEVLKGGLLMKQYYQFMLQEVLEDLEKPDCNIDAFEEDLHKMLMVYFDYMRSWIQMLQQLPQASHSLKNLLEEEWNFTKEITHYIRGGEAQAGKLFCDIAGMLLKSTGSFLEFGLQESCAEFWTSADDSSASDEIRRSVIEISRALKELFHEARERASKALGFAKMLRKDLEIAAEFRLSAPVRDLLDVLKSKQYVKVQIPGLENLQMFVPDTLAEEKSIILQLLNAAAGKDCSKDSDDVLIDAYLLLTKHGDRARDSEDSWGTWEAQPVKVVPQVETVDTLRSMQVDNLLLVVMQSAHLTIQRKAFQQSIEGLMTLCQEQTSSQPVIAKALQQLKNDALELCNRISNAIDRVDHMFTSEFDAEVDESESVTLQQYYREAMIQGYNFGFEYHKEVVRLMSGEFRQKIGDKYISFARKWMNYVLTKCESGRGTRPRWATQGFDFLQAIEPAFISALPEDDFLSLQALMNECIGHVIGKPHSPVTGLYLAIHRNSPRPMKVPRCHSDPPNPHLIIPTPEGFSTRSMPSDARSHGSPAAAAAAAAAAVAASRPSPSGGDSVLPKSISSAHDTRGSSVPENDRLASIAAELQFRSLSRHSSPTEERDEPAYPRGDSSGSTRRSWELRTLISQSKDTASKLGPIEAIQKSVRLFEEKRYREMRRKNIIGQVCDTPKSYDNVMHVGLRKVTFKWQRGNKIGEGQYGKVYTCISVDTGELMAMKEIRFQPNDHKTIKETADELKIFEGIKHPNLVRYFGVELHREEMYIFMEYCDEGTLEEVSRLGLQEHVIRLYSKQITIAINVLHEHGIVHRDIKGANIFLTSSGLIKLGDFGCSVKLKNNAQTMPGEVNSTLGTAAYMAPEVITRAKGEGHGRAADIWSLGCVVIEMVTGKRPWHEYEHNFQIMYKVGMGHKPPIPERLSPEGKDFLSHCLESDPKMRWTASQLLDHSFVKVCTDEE

[3] = molecular target: Mitogen-activated protein kinase 14 (Homo sapiens) (UniProt Q16539); assay: Inhibition of p38alpha in human PC3 cell lysates at 10 uM using desthiobiotin-tagged ATP probe AX9989 followed by trypsinization by LC/MS analysis; details: PC-3
Sequence of Mitogen-activated protein kinase 14 (Homo sapiens) (Q16539 whole entry): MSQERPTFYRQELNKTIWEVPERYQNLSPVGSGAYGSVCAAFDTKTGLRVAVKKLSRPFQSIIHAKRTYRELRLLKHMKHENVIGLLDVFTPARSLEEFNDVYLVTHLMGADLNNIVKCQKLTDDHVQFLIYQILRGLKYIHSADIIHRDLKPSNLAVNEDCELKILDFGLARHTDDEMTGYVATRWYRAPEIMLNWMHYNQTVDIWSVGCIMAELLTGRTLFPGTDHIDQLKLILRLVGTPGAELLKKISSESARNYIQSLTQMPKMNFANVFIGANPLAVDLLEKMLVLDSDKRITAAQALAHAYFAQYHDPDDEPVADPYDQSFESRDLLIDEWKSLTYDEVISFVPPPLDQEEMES

[4] = molecular target: T2, Scaffold protein ILK (Homo sapiens) (UniProt Q13418); assay: Inhibition of ILK in human PC3 cell lysates at 10 uM using desthiobiotin-tagged ATP probe AX9989 followed by trypsinization by LC/MS analysis; details: PC-3
T2 sequence (whole entry): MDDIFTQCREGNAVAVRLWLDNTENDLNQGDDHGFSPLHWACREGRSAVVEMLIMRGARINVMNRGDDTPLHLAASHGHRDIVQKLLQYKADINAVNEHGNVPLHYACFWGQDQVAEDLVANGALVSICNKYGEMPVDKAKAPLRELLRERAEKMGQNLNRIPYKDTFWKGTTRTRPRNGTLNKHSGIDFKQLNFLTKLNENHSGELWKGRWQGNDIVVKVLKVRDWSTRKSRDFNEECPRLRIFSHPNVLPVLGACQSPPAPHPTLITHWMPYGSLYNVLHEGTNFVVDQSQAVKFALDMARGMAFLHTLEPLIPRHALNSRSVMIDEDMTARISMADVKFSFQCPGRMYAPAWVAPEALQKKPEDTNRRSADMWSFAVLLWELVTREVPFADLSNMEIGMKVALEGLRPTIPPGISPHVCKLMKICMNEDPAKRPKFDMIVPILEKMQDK

[5] = molecular target: Mitogen-activated protein kinase kinase kinase 20 (Homo sapiens) (UniProt Q9NYL2); assay: Inhibition of ZAK in human PC3 cell lysates at 10 uM using desthiobiotin-tagged ATP probe AX9989 followed by trypsinization by LC/MS analysis; details: PC-3
Sequence of Mitogen-activated protein kinase kinase kinase 20 (Homo sapiens) (Q9NYL2 2-800 limits assumed): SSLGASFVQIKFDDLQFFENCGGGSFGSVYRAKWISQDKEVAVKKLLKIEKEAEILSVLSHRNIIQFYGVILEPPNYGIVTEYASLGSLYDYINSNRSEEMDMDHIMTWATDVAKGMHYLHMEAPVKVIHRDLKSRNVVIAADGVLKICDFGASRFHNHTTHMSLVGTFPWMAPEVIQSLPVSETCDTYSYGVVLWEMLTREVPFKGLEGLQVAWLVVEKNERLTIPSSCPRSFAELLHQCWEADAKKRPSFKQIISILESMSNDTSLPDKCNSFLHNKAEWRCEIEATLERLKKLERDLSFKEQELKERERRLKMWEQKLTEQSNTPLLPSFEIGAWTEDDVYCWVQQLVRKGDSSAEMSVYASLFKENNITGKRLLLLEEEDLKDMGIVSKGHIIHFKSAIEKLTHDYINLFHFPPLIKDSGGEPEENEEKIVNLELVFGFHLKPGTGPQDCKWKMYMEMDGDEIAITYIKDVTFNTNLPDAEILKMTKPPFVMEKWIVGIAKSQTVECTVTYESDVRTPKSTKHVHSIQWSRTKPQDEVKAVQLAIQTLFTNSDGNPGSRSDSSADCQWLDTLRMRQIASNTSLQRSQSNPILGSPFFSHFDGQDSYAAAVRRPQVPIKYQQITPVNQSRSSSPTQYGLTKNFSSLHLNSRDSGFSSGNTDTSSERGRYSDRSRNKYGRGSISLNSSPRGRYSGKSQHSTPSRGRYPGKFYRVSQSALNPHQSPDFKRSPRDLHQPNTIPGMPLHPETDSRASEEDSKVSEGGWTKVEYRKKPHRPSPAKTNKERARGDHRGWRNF

PC-3 = assay: Inhibition of KHS1 in human PC3 cell lysates at 10 uM using desthiobiotin-tagged ATP probe AX9989 followed by trypsinization by LC/MS analysis; format: cell-free
[6] = molecular target: T3, EKC/KEOPS complex subunit TP53RK (Homo sapiens) (UniProt Q96S44); assay: Inhibition of PRPK in human PC3 cell lysates at 10 uM using desthiobiotin-tagged ATP probe AX9989 followed by trypsinization by LC/MS analysis; details: PC-3
T3 sequence (whole entry): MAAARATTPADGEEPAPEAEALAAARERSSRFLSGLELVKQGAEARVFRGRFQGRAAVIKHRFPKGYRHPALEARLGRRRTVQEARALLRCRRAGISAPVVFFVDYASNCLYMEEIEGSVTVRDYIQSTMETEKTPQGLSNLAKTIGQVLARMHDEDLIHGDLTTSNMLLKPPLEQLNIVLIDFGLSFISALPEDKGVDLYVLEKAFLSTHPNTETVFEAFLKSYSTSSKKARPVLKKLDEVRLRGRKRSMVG

[7] = molecular target: Dual specificity mitogen-activated protein kinase kinase 2 (Homo sapiens) (UniProt P36507); assay: Inhibition of MAP2K2 in human PC3 cell lysates at 10 uM using desthiobiotin-tagged ATP probe AX9989 followed by trypsinization by LC/MS analysis; details: PC-3
Sequence of Dual specificity mitogen-activated protein kinase kinase 2 (Homo sapiens) (P36507 whole entry): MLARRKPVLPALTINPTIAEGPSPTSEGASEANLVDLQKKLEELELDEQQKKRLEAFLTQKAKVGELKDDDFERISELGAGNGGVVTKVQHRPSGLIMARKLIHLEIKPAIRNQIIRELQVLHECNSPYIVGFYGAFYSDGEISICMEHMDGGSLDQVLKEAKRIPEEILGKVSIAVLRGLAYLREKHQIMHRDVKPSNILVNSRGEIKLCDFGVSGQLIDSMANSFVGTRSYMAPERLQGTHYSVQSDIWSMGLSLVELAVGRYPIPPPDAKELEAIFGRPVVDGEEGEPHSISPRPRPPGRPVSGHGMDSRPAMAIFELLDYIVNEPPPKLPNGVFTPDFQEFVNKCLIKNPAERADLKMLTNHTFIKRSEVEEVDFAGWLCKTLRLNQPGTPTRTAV

[8] = molecular target: Serine/threonine-protein kinase 16 (Homo sapiens) (UniProt O75716); assay: Inhibition of MPSK1 in human PC3 cell lysates at 10 uM using desthiobiotin-tagged ATP probe AX9989 followed by trypsinization by LC/MS analysis; details: PC-3
Sequence of Serine/threonine-protein kinase 16 (Homo sapiens) (O75716 whole entry): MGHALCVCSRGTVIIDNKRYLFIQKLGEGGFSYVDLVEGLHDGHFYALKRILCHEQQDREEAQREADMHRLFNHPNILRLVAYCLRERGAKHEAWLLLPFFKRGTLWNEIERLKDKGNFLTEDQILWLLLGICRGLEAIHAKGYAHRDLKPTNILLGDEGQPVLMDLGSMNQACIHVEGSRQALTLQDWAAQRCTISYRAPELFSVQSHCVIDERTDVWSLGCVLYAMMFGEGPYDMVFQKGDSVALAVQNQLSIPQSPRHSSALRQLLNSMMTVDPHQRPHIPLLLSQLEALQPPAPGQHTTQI

[9] = molecular target: T4, Serine/threonine-protein kinase tousled-like 1 (Homo sapiens) (UniProt Q9UKI8); assay: Inhibition of TLK1 in human PC3 cell lysates at 10 uM using desthiobiotin-tagged ATP probe AX9989 followed by trypsinization by LC/MS analysis; details: PC-3
T4 sequence (whole entry): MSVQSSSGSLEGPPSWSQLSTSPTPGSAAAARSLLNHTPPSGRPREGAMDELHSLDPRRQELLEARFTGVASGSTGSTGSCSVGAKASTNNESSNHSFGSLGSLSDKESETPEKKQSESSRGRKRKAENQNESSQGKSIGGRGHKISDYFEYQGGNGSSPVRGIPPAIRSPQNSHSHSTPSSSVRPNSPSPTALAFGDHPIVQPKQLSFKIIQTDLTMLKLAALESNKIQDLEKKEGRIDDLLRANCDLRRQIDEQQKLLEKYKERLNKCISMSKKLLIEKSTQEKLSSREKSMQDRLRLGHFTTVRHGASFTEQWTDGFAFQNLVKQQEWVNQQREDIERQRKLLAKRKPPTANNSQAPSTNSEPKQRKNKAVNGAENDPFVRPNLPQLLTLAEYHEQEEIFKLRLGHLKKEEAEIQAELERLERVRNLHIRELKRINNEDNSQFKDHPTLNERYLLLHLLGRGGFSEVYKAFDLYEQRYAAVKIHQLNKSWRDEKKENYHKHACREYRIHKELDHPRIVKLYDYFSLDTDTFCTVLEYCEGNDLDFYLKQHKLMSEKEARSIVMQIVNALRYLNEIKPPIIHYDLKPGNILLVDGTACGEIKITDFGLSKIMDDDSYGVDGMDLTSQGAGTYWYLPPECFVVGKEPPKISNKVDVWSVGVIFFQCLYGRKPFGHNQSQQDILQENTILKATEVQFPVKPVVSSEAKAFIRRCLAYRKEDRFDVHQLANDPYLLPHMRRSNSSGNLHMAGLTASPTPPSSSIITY

| Compound | inhibition [1] [%] | inhibition [2] [%] | inhibition [3] [%] | inhibition [4] [%] | inhibition [5] [%] | inhibition (PC-3) [%] | inhibition [6] [%] | inhibition [7] [%] | inhibition [8] [%] | inhibition [9] [%] |
| --- | --- | --- | --- | --- | --- | --- | --- | --- | --- | --- |
| O=C(N[C@H](CO)c1ccccc1)c1ccc2nc(N[C@H]3CC[C@H](O)CC3)c3nccn3c2c1 | < 35 | < 35 | < 35 | < 35 | < 35 | < 35 | < 35 | < 35 | < 35 | < 35 |
| CC(C)(NC(=O)c1ccc2nc(N[C@H]3CC[C@H](O)CC3)c3nccn3c2c1)c1ccccc1 | < 35 | < 35 | < 35 | < 35 | < 35 | < 35 | < 35 | < 35 | < 35 | < 35 |
| O=C(NC1(Cc2ccc(F)cc2)CC1)c1ccc2nc(N[C@H]3CC[C@H](O)CC3)c3nccn3c2c1 | < 35 | < 35 | < 35 | < 35 | < 35 | < 35 | < 35 | < 35 | < 35 | < 35 |
| O=C(O)c1ccc2nc(N[C@H]3CC[C@H](O)CC3)c3nccn3c2c1 | < 35 | < 35 | < 35 | < 35 | < 35 | < 35 | 86.6 | < 35 | 48.9 | < 35 |
| CCC[C@@H](NC(=O)c1ccc2nc(N[C@H]3CC[C@H](O)CC3)c3nccn3c2c1)c1ccccc1 | < 35 | < 35 | < 35 | < 35 | < 35 | < 35 | < 35 | < 35 | < 35 | < 35 |
| C[C@H](NC(=O)c1ccc2nc(N[C@H]3CC[C@H](O)CC3)c3nccn3c2c1)c1ccccc1 | < 35 | < 35 | < 35 | < 35 | < 35 | < 35 | < 35 | < 35 | < 35 | < 35 |
| O=C(NC1(c2ccccc2)CC1)c1ccc2nc(N[C@H]3CC[C@H](O)CC3)c3nccn3c2c1 | < 35 | < 35 | < 35 | < 35 | < 35 | < 35 | < 35 | < 35 | < 35 | < 35 |
| O=C(NC1(c2ccccc2)CCC1)c1ccc2nc(N[C@H]3CC[C@H](O)CC3)c3nccn3c2c1 | < 35 | < 35 | < 35 | < 35 | < 35 | < 35 | < 35 | < 35 | < 35 | < 35 |
| C[C@@H](NC(=O)c1ccc2nc(N[C@H]3CC[C@H](O)CC3)c3nccn3c2c1)c1ccccc1 | < 35 | < 35 | < 35 | < 35 | < 35 | < 35 | < 35 | < 35 | < 35 | < 35 |
| O=C(NC1(c2ccc(F)cc2)CC1)c1ccc2nc(N[C@H]3CC[C@H](O)CC3)c3nccn3c2c1 | < 35 | < 35 | < 35 | < 35 | < 35 | < 35 | < 35 | < 35 | < 35 | < 35 |
| NC(=O)c1ccc2nc(N[C@H]3CC[C@H](O)CC3)c3nccn3c2c1 | < 35 | < 35 | < 35 | < 35 | < 35 | < 35 | < 35 | < 35 | 39.1 | < 35 |
| CC[C@@H](NC(=O)c1ccc2nc(N[C@H]3CC[C@H](O)CC3)c3nccn3c2c1)c1ccccc1 | < 35 | < 35 | < 35 | < 35 | < 35 | < 35 | < 35 | < 35 | < 35 | < 35 |
